Here are results for 16 compounds from patent publication US11938135B2, “Compositions and methods for treating vascular Ehlers Danlos syndrome and associated disorders” (The Johns Hopkins University, priority 2018, dated 2024).

“Also recorded” adds a separate entry of the source.

For assay [1], the system named is vEDS mice. The experiment in a line: Survival of drug-treated vEDS mice (death due to aortic dissection). Format: in vivo, mouse. To be noted: for protection from dissection or death: vEDS mice, dose not stated (early data); for survival rate: after about 30 days (1 month) of treatment. As for the experimental part: Novel knock-in glycine substitution (Col3a1 G209S/+ and Col3a1 G938D/+) vEDS mice were created using CRISPR/Cas9.
To introduce each mutation, 3 guide RNAs (tracrRNA+crRNA) were designed to target the DNA regions flanking the intended mutation site. A DNA oligo repair template (ssDNA oligo) was also designed that included homologous sequences upstream and downstream of the target region, as well as the intended mutation. Pronuclear injection of one-cell C57BL/6J embryos was performed by the JHU Transgenic Core using standard microinjection techniques using a mix of Cas9 protein, tracrRNA, crRNA, and ssDNA oligo diluted in RNAse free injection buffer. Injected embryos were transferred into the oviducts of pseudopregnant ICR females using established techniques. Sanger sequencing of the site was utilized to confirm introduction of the mutation, and the mice were backcrossed for at least 4 generations to eliminate off-target effects. For the G209S mouse, the mutation introduced was c.625_626 GG>TC, corresponding to p.Gly210Ser in humans. For the G938D mouse, the mutation introduced was c.2813G>A, corresponding to […] in humans. The Wild-type Human Col3a1 mRNA NCBI Accession No: NM_000090.3; the wild-type Mouse Col3a1 mRNA NCBI Accession No.: NM_009930.2.
Pharmacological ERK antagonists were tested to support the role of ERK activation in the pathogenesis of vEDS and as a method to identify therapeutic strategies for vEDS. Mice were treated with cobimetinib [GDC-0973, RO5514041] (2 mg/kg/day), an FDA-approved inhibitor of MEK, the kinase that activates ERK^8. It was hypothesized that if ERK activation was truly driving disease risk, ERK inhibition would rescue the risk of death from aortic dissection.
Next, further studies were performed to test agents that inhibit PKC activation. Mice were treated with ruboxistaurin [LY 333531] […] It was hypothesized that if ERK activation, and thereby disease risk, was driven by PLC/IP3/PKC activation, a pharmacologic PKC inhibitor would also rescue the risk of death from aortic dissection.
Further studies were performed to test other medications that inhibit this signaling cascade.

The subject of assay [2] is MFS mice. The conditions noted are these: cited from earlier work.
Assay [3] in a line: Blood pressure / hemodynamic stress in treated vEDS mice. Format: in vivo, mouse. To be noted: for hemodynamic stress: dose not stated; for effect on blood pressure: doses as in the survival studies.
The test system of assay [4] is 129 MFS mice. The assay is described as follows: Aortic root growth in Marfan syndrome mice. The format is in vivo, mouse. To be noted: ruboxistaurin 10 mg/kg/d, p=2E-4. The source says: In examples, different PKC-β inhibitors are used for the treatment of Marfan Syndrome. For example, treatment of Marfan Syndrome may include administration of ruboxistaurin. […] In other examples, treatment of Marfan Syndrome includes administration of enzastaurin or sotrastaurin.

Assay [5] has as its system vEDS mice, first 30 days postpartum. The experiment in a line: Postpartum survival of lactating vEDS mice (pregnancy/breastfeeding model). The format is in vivo, mouse. The text has this:
Previously, it was shown that pregnancy-associated aortic dissection is largely driven by lactation-associated oxytocin release and oxytocin-induced ERK signaling in MFS mouse aortas^11. Thus, oxytocin-induced ERK signaling was used as a method to test whether activation of the PLC/IP3/PKC/ERK axis would worsen the risk of aortic dissection.
Oxytocin-induced ERK signaling was used as a method to test the hypothesis that activation of the PLC/IP3/PKC/ERK axis would worsen the risk of aortic dissection.

For assay [6], the system named is Col3a1^G209S/+ mice. The assay is described as follows: Risk of aortic dissection in Col3a1 G209S/+ mice. The format is in vivo, mouse. The conditions noted are these: celiprolol; Col3a1 G209S/+ mutation. The source says:
Others have proposed^5-8 that vEDS phenotypes are a result of chronically “weak” tissue and therefore propose that decreasing blood pressure with beta-adrenergic receptor blockers should decrease the risk of aortic rupture in these patients. […] Since this was not common to all β antagonists, this observation could be driven by celiprolol's β2 agonism activity.

Assay [7] deals with patients with vEDS. The conditions noted are these: small human study; cited from earlier work.

Consider `COC(=O)c1ccc2c(c1)NC(=O)/C2=C(\Nc1ccc(N(C)C(=O)CN2CCN(C)CC2)cc1)c1ccccc1` [nintedanib], for which the impact on survival result in assay [1] (nintedanib 50 mg/kg/d) is recorded as “no impact on survival”.

For the compound `CCCCc1nc(Cl)c(CO)n1Cc1ccc(-c2ccccc2-c2nn[nH]n2)cc1` [losartan], the impact on survival result in assay [1] (losartan 60 mg/kg/d) is given as “no impact on survival”. In assay [1], the “protection from dissection or death” value was “no evidence of protection from dissection or death”. Moreover, the “aortic disease in MFS mice” value in assay [2] (MFS mice, literature refs 3-6) was “can suppress aortic disease”. In addition, the “protection in mouse models of MFS or LDS” value in assay [2] (mouse models of MFS or LDS) is on record as “afford dramatic protection”. Besides, the hemodynamic stress result in assay [3] is on record as “achieved the predicted lowering of hemodynamic stress”.

In the case of `CC(=O)S[C@@H]1CC2=CC(=O)CC[C@]2(C)[C@H]2CC[C@@]3(C)[C@@H](CC[C@@]34CCC(=O)O4)[C@H]12` [spironolactone], the survival in assay [1] (spironolactone alone 100 mg/kg/d) is listed as ~80%.

As to `CC(C)NCC(O)COc1ccc(CC(N)=O)cc1` (stereo not drawn) [atenolol], the improvement in survival result in assay [1] (atenolol 120 mg/kg/d) is “none of these manipulations lead to an improvement in survival”. Further, in assay [3], the “effect on blood pressure” value was “decreases in blood pressure”.

`O=C(c1ccc(F)c(F)c1Nc1ccc(I)cc1F)N1CC(O)([C@@H]2CCCCN2)C1` [cobimetinib] registered a survival in assay [1] (cobimetinib 2 mg/kg/day, after 45 days of treatment, 55% survival with no treatment) of 94%. Also, the “effect on blood pressure” value in assay [3] was “Neither cobimetinib nor ruboxistaurin had an effect on blood pressure”.

For the compound `CN(C)C[C@@H]1CCn2cc(c3ccccc32)C2=C(C(=O)NC2=O)c2cn(c3ccccc23)CCO1` [ruboxistaurin, (9S)-9-[(dimethylamino)methyl]-6,7,10,11-tetrahydro-9H,18H-5,21:12,17-di(metheno)dibenzo[e,k]pyrrolo[3,4-h][1,4,13]oxadiazacyclohexadecine-18,20-dione], the aortic root growth entry in assay [4] is given as “reduces aortic root growth; also recorded: rescued the aortic root growth”. In assay [1] (ruboxistaurin 10 mg/kg/day, after 39 days of treatment, 55% survival with no treatment), this compound returned a survival of 100%. Also, the “effect on blood pressure” value in assay [3] is “Neither cobimetinib nor ruboxistaurin had an effect on blood pressure”.

For the compound des Gly-NH2,d(CH2)5[D-Tyr2,Thr4]OVT, the survival postpartum in assay [5] (oxytocin receptor antagonist, first 30 days postpartum, mice still lactating) turned out to be 95%.

`CCOC(=O)N[C@@H]1CC[C@@H]2[C@@H](C1)C[C@H]1C(=O)O[C@H](C)[C@H]1[C@H]2/C=C/c1ccc(-c2cccc(F)c2)cn1` [vorapraxar]: the impact on survival result in assay [1] (vorapraxar 1 mg/kg/d) is “no impact on survival”.

Turning to `COc1ccccc1Oc1c(NS(=O)(=O)c2ccc(C(C)(C)C)cc2)nc(-c2ncccn2)nc1OCCO` [bosentan], in assay [1] (bosentan 100 mg/kg/d, after 40 days of treatment, 50% survival in untreated vEDS mice, p=0.0298), the survival amounted to 80%.

For `CN1CCN(c2nc(C3=C(c4c[nH]c5ccccc45)C(=O)NC3=O)c3ccccc3n2)CC1` [sotrastaurin], the survival rate entry in assay [1] (sotrastaurin about 30 mg/kg/day orally) is reported as “about 100%”.

With `CC(O)(CS(=O)(=O)c1ccc(F)cc1)C(=O)Nc1ccc(C#N)c(C(F)(F)F)c1` (stereo not drawn) [bicalutamide], in assay [1] (bicalutamide alone, male mice), the “survival in male mice” value is on record as ~80%.

Compound `Cn1cc(C2=C(c3cn(C4CCN(Cc5ccccn5)CC4)c4ccccc34)C(=O)NC2=O)c2ccccc21` [enzastaurin, 3-(1-Methylindol-3-yl)-4-[1-[1-(pyridin-2-ylmethyl)piperidin-4-yl]indol-3-yl]pyrrole-2,5-dione] registered a survival in assay [1] (enzastaurin 60 mg/kg/d, after 40 days of treatment, 50% of untreated vEDS mice, p=0.0305) of 80%. In assay [1] (enzastaurin about 30 mg/kg/day orally), the survival rate entry is listed as “about 100%”.

Regarding `CC(C)NCC(O)COc1cccc2ccccc12` (stereo not drawn) [propranolol], in assay [1] (propranolol 80 mg/kg/d), the improvement in survival result was “none of these manipulations lead to an improvement in survival”. In addition, the “effect on blood pressure” value in assay [3] is listed as “lowers blood pressure; also recorded: decreases in blood pressure”. Besides, in assay [5] (propranolol, after 30 days postpartum, vs. 50% survival), the survival postpartum turned out to be 46%. Also, the “effect on postpartum survival” value in assay [5] (propranolol, first 30 days postpartum, mice still lactating) is given as “does not improve survival; also recorded: did not affect survival”.

As to `CCN(CC)C(=O)Nc1ccc(OCC(O)CNC(C)(C)C)c(C(C)=O)c1` (stereo not drawn) [celiprolol], in assay [1] (celiprolol 200 mg/kg/d), the improvement in survival entry is reported as “none of these manipulations lead to an improvement in survival”. Also, the “risk of aortic dissection” value in assay [1] (celiprolol 200 mg/kg/d, vEDS mouse models) is “accelerated the risk of aortic dissection”. The “protection from dissection or death” value in assay [1] was “significant acceleration of dissection and death”. In addition, in assay [3], the hemodynamic stress result was “achieved the predicted lowering of hemodynamic stress” and the “effect on blood pressure” value is on record as “decreases in blood pressure”. The “risk of aortic dissection” value in assay [6] is on record as “increased risk of aortic dissection”. In assay [7], the “adverse events in patients with vEDS” value is “potential to delay adverse events”.

`NNc1nncc2ccccc12` [hydralazine] showed a survival in assay [1] (hydralazine 32 mg/kg/d, at 45 days of age, the median survival for an untreated vEDS mouse) of 98%. Also, the “survival in male mice” value in assay [1] (hydralazine-only (32 mg/kg/d) treated male mice) was 24%. For the same compound, the survival postpartum in assay [5] (hydralazine 16 mg/kg/day, first 30 days postpartum, 60% lethality untreated) turned out to be 95%.

Turning to `CC(=O)Nc1cccc(-n2c(=O)n(C3CC3)c(=O)c3c(Nc4ccc(I)cc4F)n(C)c(=O)c(C)c32)c1` [trametinib], in assay [5] (trametinib 1 mg/kg/day, first 30 days postpartum, 60% lethality untreated), the survival postpartum is 95%.
